The source of these data is ChEMBL document CHEMBL4507266, “Data for DCP probe BAY-784” (2021).

Data set [1] addresses Neuropeptide Y receptor type 2 (Homo sapiens) (UniProt P49146). Briefly: Inhibition of Neuropeptide Y Y2 at 10 µM in the Eurofins-Panlabs radioligand binding assay (Eurofins_assay_257110). The following applies: Compound concentration 10.0 uM.
In data set [2] the target is C-X-C chemokine receptor type 2 (Homo sapiens) (UniProt P25025). Description: Inhibition of Chemokine CXCR2 (IL-8RB) at 10 µM in the Eurofins-Panlabs radioligand binding assay (Eurofins_assay_244500). The following applies: Compound concentration 10.0 uM.
Data set [3] concerns the target GABA-A receptor; anion channel (Rattus norvegicus) (UniProt O09028+P15431+P18506+P18508+P19969+P20236+P23574+P23576+P28471+P28473+P30191+P62813+P63079+P63138+Q91ZM7+Q9ES14). The following applies: Compound concentration 10.0 uM.
In data set [4] the target is Histamine H1 receptor (Homo sapiens) (UniProt P35367). The conditions noted are these: Compound concentration 10.0 uM.
Data set [5] deals with Delta-type opioid receptor (Homo sapiens) (UniProt P41143). The conditions noted are these: Compound concentration 10.0 uM.
Data set [6] has as its target Melanocortin receptor 4 (Homo sapiens) (UniProt P32245). Briefly: Inhibition of Melanocortin MC4 at 10 µM in the Eurofins-Panlabs radioligand binding assay (Eurofins_assay_251350). The arrangement: ligand concentration 0.02 nM. The following applies: Compound concentration 10.0 uM.
In data set [7] the target is Caspase-1 (Homo sapiens) (UniProt P29466). Description: Inhibition of Peptidase, CASP1 (Caspase 1) at 10 µM in the Eurofins-Panlabs enzyme assay (Eurofins_assay_163000). The conditions noted are these: Compound concentration 10.0 uM.
Data set [8] is filed under the species Mus musculus. Description: Inhibition of Phorbol Ester at 10 µM in the Eurofins-Panlabs radioligand binding assay (Eurofins_assay_264500). The following applies: Compound concentration 10.0 uM. Details: ligand concentration 3 nM; call rule not given here.
Data set [9] has as its target Sigma non-opioid intracellular receptor 1 (Homo sapiens) (UniProt Q99720). Description: Sigma 1 Eurofins-Panlabs radioligand binding assay. The arrangement: ligand concentration 8 nM. The following applies: Compound concentration 10.0 uM.
Data set [10] has as its target Matrix metalloproteinase-9 (Homo sapiens) (UniProt P14780). Description: Inhibition of Peptidase, Matrix Metalloproteinase-9 (MMP-9) at 10 µM in the Eurofins-Panlabs enzyme assay (Eurofins_assay_114910). The arrangement: substrate with concentration. The conditions noted are these: Compound concentration 10.0 uM.
Data set [11] addresses T1, Alpha-2B adrenergic receptor (Homo sapiens) (UniProt P18089).
T1 sequence (whole entry): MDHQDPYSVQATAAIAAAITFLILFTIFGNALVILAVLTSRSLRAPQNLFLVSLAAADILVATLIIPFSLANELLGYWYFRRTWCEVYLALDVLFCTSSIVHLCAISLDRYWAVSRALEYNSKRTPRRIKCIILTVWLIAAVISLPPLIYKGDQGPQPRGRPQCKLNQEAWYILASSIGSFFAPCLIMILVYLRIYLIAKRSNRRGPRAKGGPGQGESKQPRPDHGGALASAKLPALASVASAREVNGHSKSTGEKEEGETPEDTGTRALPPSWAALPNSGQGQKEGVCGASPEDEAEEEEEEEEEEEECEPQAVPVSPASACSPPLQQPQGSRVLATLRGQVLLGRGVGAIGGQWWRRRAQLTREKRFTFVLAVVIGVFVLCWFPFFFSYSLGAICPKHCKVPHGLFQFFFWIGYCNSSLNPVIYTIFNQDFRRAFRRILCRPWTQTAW
The following applies: Compound concentration 10.0 uM.

The target of data set [12] is CYP1A2 (Homo sapiens, UniProt P05177). Briefly: CYP450, 1A2 Eurofins-Panlabs enzyme assay. The following applies: compound concentration 10 uM.
The species entered for data set [13] is Rattus norvegicus. Briefly: Inhibition of Glycine, Strychnine-Sensitive at 10 µM in the Eurofins-Panlabs radioligand binding assay (Eurofins_assay_239000). The following applies: Compound concentration 10.0 uM.
Data set [14] addresses Adenosine Transporter (Cavia porcellus) (UniProt H0V4R7+H0UUG1+H0V3Z5). Description: Inhibition of Transporter, Adenosine at compound concentration of 10.0 uM in the Eurofins-Panlabs radioligand binding assay (Eurofins_assay_202000). It is filed as protein assay. The arrangement: ligand concentration 0.5 nM, non-specific ligand with concentration 5 uM Nitrobenzylthioinosine, incubation time 30 min, incubation temperature 25 C. The conditions noted are these: Compound concentration 10.0 uM.

In data set [15] the test system is Bacteria. Briefly: Inhibition of Beta-Lactamase at 10 µM in the Eurofins-Panlabs enzyme assay (Eurofins_assay_126000). It is filed as protein-complex assay. The arrangement: substrate with concentration. The conditions noted are these: Compound concentration 10.0 uM.
In data set [16] the target is Thromboxane-A synthase (Homo sapiens) (UniProt P24557). Description: Inhibition of Thromboxane Synthase at compound concentration of 10.0 uM in the Eurofins-Panlabs enzyme assay (Eurofins_assay_194020). Details: substrate with concentration. The following applies: Compound concentration 10.0 uM.
In data set [17] the target is T2, D(1A) dopamine receptor (Homo sapiens, UniProt P21728). The following applies: Compound concentration 10.0 uM.
The target in data set [18] is cGMP-specific 3',5'-cyclic phosphodiesterase (Homo sapiens) (UniProt O76074). The following applies: Compound concentration 10.0 uM.
Data set [19] has as its target CYP2C19 (Homo sapiens, UniProt P33261). Briefly: CYP450, 2C19 Eurofins-Panlabs enzyme assay. The conditions noted are these: compound concentration 10 uM.
Data set [20] concerns the target Endothelin-1 receptor (Homo sapiens) (UniProt P25101). The conditions noted are these: Compound concentration 10.0 uM.
Data set [21] has as its target Sodium-dependent dopamine transporter (Homo sapiens) (UniProt Q01959). The following applies: Compound concentration 10.0 uM.
The species entered for data set [22] is Sus scrofa. Briefly: Inhibition of ATPase, Na+/K+, Heart at compound concentration of 10.0 uM in the Eurofins-Panlabs enzyme assay (Eurofins_assay_107710). Details: substrate with concentration. The following applies: Compound concentration 10.0 uM.
The target of data set [23] is 5-hydroxytryptamine receptor 2B (Homo sapiens) (UniProt P41595). The following applies: Compound concentration 10.0 uM.
The species named for data set [24] is Rattus norvegicus. The conditions noted are these: Compound concentration 10.0 uM.
The species entered for data set [25] is Homo sapiens. Description: Inhibition of Phosphodiesterase PDE4 at compound concentration of 10.0 uM in the Eurofins-Panlabs enzyme assay (Eurofins_assay_154000). The following applies: Compound concentration 10.0 uM. The arrangement: substrate with concentration 1.01 uM [3 H]cAMP + cAMP, incubation time 20 min, incubation temperature 25 C. It is filed as protein assay.

The target in data set [26] is C-C chemokine receptor type 2 (Homo sapiens) (UniProt P41597). Description: Inhibition of Chemokine CCR2B at 10 µM in the Eurofins-Panlabs radioligand binding assay (Eurofins_assay_217550). The conditions noted are these: Compound concentration 10.0 uM.
Data set [27] has as its target Phosphodiesterase 3 (Homo sapiens) (UniProt Q14432+Q13370). Briefly: Inhibition of Phosphodiesterase PDE3 at compound concentration of 10.0 uM in the Eurofins-Panlabs enzyme assay (Eurofins_assay_152000). It counts as protein assay. Details: substrate with concentration 1.01 uM [3H] cAMP + cAMP, incubation time 20 min, incubation temperature 25 C. The conditions noted are these: Compound concentration 10.0 uM.

The target in data set [28] is Muscarinic acetylcholine receptor M4 (Homo sapiens) (UniProt P08173). The conditions noted are these: Compound concentration 10.0 uM.
Data set [29] deals with Adenosine receptor A3 (Homo sapiens) (UniProt P0DMS8). The following applies: Compound concentration 10.0 uM.
Data set [30] deals with Type-2 angiotensin II receptor (Homo sapiens) (UniProt P50052). The following applies: Compound concentration 10.0 uM.
The target in data set [31] is 3-hydroxy-3-methylglutaryl-coenzyme A reductase (Homo sapiens) (UniProt P04035). Description: Inhibition of HMG-CoA Reductase at compound concentration of 10.0 uM in the Eurofins-Panlabs enzyme assay (Eurofins_assay_124010). The arrangement: substrate with concentration. The conditions noted are these: Compound concentration 10.0 uM.
Data set [32] deals with Sodium-dependent dopamine transporter (Homo sapiens) (UniProt Q01959). The conditions noted are these: Compound concentration 10.0 uM. This is another data set of the same source.
Data set [33] concerns the target T2, D(1A) dopamine receptor. Briefly: GPCRScan assay: inhibition of D1. Details: radioligand conc. used [nm] 0.6 – 1.3, parental cells HEKT.

Each structure is given as a SMILES string.

Sodium-dependent dopamine transporter (Homo sapiens), sequence (Q01959 whole entry): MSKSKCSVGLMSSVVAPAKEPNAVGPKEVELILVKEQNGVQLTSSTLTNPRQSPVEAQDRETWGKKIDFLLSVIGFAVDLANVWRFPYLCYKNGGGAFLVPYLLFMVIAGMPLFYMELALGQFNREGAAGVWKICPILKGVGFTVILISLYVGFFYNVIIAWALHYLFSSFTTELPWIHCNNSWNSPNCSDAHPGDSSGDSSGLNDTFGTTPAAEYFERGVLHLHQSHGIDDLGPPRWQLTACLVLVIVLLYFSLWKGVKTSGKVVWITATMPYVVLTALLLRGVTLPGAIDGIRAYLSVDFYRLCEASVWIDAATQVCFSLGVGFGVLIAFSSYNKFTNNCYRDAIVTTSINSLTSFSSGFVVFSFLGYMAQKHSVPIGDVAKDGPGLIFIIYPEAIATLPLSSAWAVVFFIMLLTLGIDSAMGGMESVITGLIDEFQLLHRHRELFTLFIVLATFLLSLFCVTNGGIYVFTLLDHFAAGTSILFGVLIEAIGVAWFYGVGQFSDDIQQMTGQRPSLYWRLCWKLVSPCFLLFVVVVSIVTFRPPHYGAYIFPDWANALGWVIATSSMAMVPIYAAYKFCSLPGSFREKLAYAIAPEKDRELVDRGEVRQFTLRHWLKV
T2 sequence (P21728 whole entry): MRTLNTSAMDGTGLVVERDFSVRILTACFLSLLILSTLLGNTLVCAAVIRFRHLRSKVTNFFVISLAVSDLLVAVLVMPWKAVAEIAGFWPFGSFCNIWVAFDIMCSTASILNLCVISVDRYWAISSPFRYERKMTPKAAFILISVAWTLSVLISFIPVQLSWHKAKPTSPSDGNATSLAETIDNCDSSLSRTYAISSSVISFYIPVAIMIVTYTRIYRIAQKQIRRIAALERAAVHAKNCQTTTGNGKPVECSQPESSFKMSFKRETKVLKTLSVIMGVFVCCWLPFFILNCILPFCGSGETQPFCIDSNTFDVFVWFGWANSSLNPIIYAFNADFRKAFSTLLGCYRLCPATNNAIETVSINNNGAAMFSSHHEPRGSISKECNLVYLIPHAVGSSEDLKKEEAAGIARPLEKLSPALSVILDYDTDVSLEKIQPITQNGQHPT
Thromboxane-A synthase (Homo sapiens), sequence (P24557 whole entry): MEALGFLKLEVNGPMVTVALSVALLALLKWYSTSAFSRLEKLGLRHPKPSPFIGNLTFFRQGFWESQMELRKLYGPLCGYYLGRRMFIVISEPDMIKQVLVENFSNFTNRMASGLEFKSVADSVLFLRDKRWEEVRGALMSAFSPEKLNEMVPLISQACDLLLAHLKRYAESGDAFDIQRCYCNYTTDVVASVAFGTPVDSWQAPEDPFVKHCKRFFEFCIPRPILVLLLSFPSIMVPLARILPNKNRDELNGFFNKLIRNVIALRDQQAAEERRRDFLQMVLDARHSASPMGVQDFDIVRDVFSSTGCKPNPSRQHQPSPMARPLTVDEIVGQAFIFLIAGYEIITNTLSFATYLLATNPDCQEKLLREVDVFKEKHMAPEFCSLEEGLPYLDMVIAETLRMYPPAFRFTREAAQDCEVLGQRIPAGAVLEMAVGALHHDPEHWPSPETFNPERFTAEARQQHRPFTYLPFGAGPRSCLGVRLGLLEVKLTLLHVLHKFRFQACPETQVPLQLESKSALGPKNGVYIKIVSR
Neuropeptide Y receptor type 2 (Homo sapiens), sequence (P49146 whole entry): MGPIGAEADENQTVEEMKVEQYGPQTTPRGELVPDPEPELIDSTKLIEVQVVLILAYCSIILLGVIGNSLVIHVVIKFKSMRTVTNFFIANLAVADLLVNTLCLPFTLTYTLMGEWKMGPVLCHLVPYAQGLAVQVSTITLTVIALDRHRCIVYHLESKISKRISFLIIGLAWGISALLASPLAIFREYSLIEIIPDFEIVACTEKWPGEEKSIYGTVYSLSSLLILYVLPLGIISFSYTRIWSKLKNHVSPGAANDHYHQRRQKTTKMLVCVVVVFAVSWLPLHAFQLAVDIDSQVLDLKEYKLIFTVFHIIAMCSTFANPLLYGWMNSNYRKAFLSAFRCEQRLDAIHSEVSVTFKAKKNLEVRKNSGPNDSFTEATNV
Caspase-1 (Homo sapiens), sequence (P29466 120-297 limits assumed): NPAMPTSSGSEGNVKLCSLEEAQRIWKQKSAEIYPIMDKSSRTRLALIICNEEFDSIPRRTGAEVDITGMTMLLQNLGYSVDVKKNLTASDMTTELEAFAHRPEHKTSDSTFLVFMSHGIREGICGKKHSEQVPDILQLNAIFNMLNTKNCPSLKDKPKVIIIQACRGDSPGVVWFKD
Caspase-1 (Homo sapiens), sequence (P29466 317-404 limits assumed): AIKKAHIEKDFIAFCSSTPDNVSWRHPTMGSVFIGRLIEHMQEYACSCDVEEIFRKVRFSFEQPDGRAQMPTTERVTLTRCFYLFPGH
5-hydroxytryptamine receptor 2B (Homo sapiens), sequence (P41595 whole entry): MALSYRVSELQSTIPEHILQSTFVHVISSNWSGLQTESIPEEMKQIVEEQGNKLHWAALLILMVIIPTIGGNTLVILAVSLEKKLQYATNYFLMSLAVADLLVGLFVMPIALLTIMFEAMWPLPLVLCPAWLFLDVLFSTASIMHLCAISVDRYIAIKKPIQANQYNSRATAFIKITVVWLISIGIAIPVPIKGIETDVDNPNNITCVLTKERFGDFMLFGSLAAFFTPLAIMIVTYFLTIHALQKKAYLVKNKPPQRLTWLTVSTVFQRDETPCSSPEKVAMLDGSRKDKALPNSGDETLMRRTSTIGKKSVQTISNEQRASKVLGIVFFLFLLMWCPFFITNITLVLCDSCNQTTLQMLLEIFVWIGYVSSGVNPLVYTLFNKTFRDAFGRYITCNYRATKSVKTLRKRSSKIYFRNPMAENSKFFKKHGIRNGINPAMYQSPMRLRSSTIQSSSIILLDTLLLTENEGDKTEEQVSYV
Delta-type opioid receptor (Homo sapiens), sequence (P41143 whole entry): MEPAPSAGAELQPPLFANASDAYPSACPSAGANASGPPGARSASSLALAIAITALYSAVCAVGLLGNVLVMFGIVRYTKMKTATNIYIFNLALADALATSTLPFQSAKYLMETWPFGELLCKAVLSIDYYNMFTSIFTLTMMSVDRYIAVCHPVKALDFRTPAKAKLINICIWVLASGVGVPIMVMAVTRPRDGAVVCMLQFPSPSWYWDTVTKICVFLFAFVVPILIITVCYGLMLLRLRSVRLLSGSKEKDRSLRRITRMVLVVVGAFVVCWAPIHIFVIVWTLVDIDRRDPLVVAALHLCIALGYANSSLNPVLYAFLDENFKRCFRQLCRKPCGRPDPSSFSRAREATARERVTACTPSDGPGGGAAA
C-C chemokine receptor type 2 (Homo sapiens), sequence (P41597 whole entry, looked up): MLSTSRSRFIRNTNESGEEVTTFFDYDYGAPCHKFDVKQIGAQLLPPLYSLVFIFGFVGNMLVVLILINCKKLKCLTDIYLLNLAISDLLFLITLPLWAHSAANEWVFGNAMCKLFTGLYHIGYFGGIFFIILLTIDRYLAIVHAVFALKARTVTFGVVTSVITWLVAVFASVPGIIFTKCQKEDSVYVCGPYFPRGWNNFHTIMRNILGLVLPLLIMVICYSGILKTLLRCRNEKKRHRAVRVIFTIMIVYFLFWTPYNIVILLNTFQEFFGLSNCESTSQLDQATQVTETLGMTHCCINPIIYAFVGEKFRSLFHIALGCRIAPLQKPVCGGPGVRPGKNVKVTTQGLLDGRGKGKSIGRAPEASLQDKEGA
CYP2C19, sequence (P33261 whole entry): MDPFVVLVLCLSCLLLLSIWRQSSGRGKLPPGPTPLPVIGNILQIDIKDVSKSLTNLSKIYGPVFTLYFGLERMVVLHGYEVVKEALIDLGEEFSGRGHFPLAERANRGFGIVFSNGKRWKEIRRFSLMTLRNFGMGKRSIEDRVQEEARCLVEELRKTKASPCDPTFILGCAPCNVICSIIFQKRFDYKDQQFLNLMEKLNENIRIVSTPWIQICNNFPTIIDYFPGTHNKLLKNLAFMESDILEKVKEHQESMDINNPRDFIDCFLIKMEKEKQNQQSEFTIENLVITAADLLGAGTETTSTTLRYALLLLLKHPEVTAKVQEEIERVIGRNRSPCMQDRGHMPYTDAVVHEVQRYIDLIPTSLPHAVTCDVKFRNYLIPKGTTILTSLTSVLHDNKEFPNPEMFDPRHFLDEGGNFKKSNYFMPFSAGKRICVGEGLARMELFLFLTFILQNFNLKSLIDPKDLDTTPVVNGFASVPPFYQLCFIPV
Matrix metalloproteinase-9 (Homo sapiens), sequence (P14780 whole entry): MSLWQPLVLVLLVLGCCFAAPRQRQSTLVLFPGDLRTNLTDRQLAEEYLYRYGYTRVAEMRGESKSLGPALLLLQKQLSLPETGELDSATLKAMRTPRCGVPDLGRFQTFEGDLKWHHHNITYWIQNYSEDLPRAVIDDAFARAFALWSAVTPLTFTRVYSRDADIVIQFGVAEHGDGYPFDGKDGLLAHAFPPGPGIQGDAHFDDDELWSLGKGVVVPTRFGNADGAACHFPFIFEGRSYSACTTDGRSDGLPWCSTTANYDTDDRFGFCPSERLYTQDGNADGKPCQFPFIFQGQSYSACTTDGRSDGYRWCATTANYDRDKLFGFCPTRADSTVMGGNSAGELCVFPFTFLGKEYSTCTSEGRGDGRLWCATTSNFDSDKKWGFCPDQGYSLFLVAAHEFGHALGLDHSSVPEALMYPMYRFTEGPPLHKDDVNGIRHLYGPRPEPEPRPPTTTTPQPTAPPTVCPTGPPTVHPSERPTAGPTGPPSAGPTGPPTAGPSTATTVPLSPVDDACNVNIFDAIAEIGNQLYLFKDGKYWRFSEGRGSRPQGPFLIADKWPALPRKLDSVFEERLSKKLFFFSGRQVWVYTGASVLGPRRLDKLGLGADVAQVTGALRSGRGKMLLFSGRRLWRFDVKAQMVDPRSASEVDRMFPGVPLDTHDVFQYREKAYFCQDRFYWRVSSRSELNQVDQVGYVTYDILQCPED
Sigma non-opioid intracellular receptor 1 (Homo sapiens), sequence (Q99720 whole entry): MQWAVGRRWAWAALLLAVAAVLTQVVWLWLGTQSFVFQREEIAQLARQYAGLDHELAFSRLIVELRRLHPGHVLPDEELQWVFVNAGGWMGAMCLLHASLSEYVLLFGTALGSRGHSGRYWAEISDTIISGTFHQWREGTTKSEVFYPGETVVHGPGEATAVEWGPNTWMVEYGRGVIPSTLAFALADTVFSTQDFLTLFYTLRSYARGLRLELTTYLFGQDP

`O=C(NCc1ncc(C(F)(F)F)cc1Cl)c1ccc2c(c1)C1(CCS(=O)(=O)CC1)[C@H](C1CC1)N2S(=O)(=O)c1ccc(F)cc1` [BAY-784]: the inhibition was 2% in data set [1]; 14% in [2]; -9.68% in data set [3]; 9% in data set [4]; 5% in data set [5]; 12% in data set [6]. Further, the inhibition was 8% in data set [7]; 1% in [8]; 15% in data set [9]; 3% in data set [10]; 4% in data set [11]; 4% in data set [13]. Moreover, the inhibition in data set [14] was 25%; in [15], 4%; in data set [16], 22%; in data set [17], 6%; in [18] it was -5%; in [20], 16%. The inhibition in [21] is 25%; in data set [22] it was 0%; in data set [23] it was 4%; in data set [24] it was 7.97%; in data set [25], 2%; in data set [26], -1%. For the same compound, the inhibition in data set [27] is 9%; in data set [28] it was 2%; in [29] it was 9%; in data set [30] it was -5%; in [31], 12%. The inhibition at 10 µM in [12] is listed as -2% (not active); in [19], 36% (not active).
Regarding `O=C(NCc1ncc(C(F)(F)F)cc1Cl)c1ccc2c(c1)C1(CCS(=O)(=O)CC1)[C@@H](C1CC1)N2S(=O)(=O)c1ccc(F)cc1` [BAY-786], in [32], the inhibition is -4.64%. Besides, in [33], the inhibitory constant (Ki) worked out at 10 µM.
